The source of these data is patent US10385085B2, “Crystal forms of sialic acid or salt or solvate thereof” (Ultragenyx Pharmaceutical Inc., priority 2015, dated 2019).

In brackets after ≈: the same amount, converted by molar mass. Several values for one entry are separate records, joined by “and”; a condition that tells them apart may be missing. Identical values can stand only once. Like-named read-outs stand apart in the source and are kept apart here.

Common to all, as to assay type: physicochemical
A short description of series [1]: 7 day stress stability, chemical stability by HPLC. The settings on record: for Sialic acid Area % (HPLC): two injections. How it is done:
The chemical purity was measured on an Agilent HP1100 HPLC system fitted with an Agilent variable wavelength UV detector. Samples were prepared by dissolving in diluent at a concentration of 1 mg/mL before being analysed under the following HPLC conditions:
(§1) The selected Forms (5, 3 and 2) were fully characterized by PLM, XRPD, ^1H NMR and IR spectroscopy, DSC, TG/DTA, GVS (with post-GVS XRPD), Karl Fischer titration for water content and HPLC analysis for purity. All of these forms with the addition of Form 1 were also placed under a stress-stability test, at three different conditions for one week (ambient conditions, 40° C. and 75% relative humidity, 80° C.). In addition to this, an approximate solubility test was conducted on the different solid forms using a solvent addition method.
(§2) All four Forms (1, 2, 3 and 5) were placed under 7 day stress stability testing. This was carried out by placing the four forms under three different conditions for one week. Their physical stability was then analyzed by comparing the diffractograms and the chemical stability was checked by HPLC.

Series [2] is described as follows: Approximate aqueous solubility of the solid forms (solvent addition method). The settings on record: for solubility: water, thermodynamic from solid. How it is done:
as §1
Approximately 50 mg of each form (1, 2, 3 and 5) was weighed into a 2 ml vial. 20 μl aliquots of deionized water was added to each vial until complete dissolution of the solid was observed. The volume was noted down and the approximate water solubility calculated.

Series [3] in a line: Differential Scanning Calorimetry (DSC). How it is done:
Approximately, 5 mg of material was weighed into an aluminium DSC pan and sealed non-hermetically with a pierced aluminium lid. The sample pan was then loaded into a Seiko DSC6200 (equipped with a cooler) cooled and held at 25° C. Once a stable heat-flow response was obtained, the sample and reference were heated to 210° C. at a scan rate of 10° C./min and the resulting heat flow response monitored. Nitrogen was used as the purge gas, at a flow rate of 50 cm^3/min.
For orientation: DSC measures the heat that a sample takes up or gives off during a temperature scan.

Series [4] can be described thus: PLM (morphology) of the solid forms. The settings on record: for PLM (morphology): particle shape.
The next series is described as follows: HPLC-UV chemical purity. The conditions noted are these: for HPLC (purity): summary Table 13. How it is done: The chemical purity was measured on an Agilent HP1100 HPLC system fitted with an Agilent variable wavelength UV detector. Samples were prepared by dissolving in diluent at a concentration of 1 mg/mL before being analysed under the following HPLC conditions: […]

The nature of series [5]: 7 day stress stability, physical form by XRPD. How it is done:
XRPD analysis was carried out on a Panalytical X′pert Pro, scanning the samples between 3 and 35° […]. The material was gently ground and loaded onto a multi well plate with Kapton or mylar polymer film to support the sample. The multi well plate was then loaded into a Panalytical diffractometer running in transmission mode and analysed, using the following experimental conditions.
as §1, §2

A short description of series [6]: Competitive slurry experiments (polymorph stability). How it is done:
Competitive slurry experiments were conducted between Forms 1 and 3 and between Forms 1 and 2. A mixture of the two forms (25 mg per form) being investigated was slurried in 1 mL of solvent for one day at 20° C. or 60° C. in five different solvents (acetone, acetic acid, ethanol, ethyl acetate and ethynol).
Competitive slurries were performed to compare the relative stability between two forms at a given temperature in a given solvent.

A short description of series [7]: Slurries of Form 1 at 5° C. followed by XRPD over time. How it is done:
Due to the discolouration of samples during slurry experiments in water and water/acetic acid mixtures, slurries of sialic acid (Form 1) were made at 5° C. in water, water/acetic acid (80/20 v/v) mixture, ethyl acetate and acetic acid and stirred for […]. Diffractograms of the slurried solids were recorded after 10 minutes, 4 hours, 20 hours and 28 hours. Form 5 was obtained in slurries containing water at all time points. Form 1 was obtained for acetic acid and ethyl acetate for all time points.

Series [8] in a line: Thermogravimetric/Differential Thermal Analysis (TG/DTA). How it is done:
Approximately, 10 mg of material was weighed into an open aluminium pan and loaded into a simultaneous thermogravimetric/differential thermal analyser (TG/DTA) and held at room temperature. The sample was then heated at a rate of 10° C./min from 25° C. to 300° C. during which time the change in sample weight was recorded along with any differential thermal events (DTA). Nitrogen was used as the purge gas, at a flow rate of 300 cm^3/min.

A short description of series [9]: Gravimetric Vapour Sorption (GVS) with post-GVS XRPD. The settings on record: for GVS mass difference: between 0-90% relative humidity; for Polymorphic form after GVS (XRPD): material reclaimed after GVS run. How it is done:
Approximately 10-20 mg of sample was placed into a mesh vapour sorption balance pan and loaded into an IGASorp Moisture Sorption Analyser balance by Hiden Analytical. The sample was subjected to a ramping profile from 40-90% relative humidity (RH) at 10% increments, maintaining the sample at each step until a stable weight had been achieved (98% step completion). After completion of the sorption cycle, the sample was dried using the same procedure to 0% RH, and finally taken back to the starting point of 40% RH. The weight change during the sorption/desorption cycles were plotted, allowing for the hygroscopic nature of the sample to be determined.

Series [10] is described as follows: Desolvation / dehydration on heating, form checked by XRPD. How it is done: A weight loss of 33.1% is observed, prior to decomposition, which coincides with an onset in the DTA profile at ca. 108.8° C. (onset of the endotherm). The second endothermic event corresponds with decomposition at ca. 186.3° C. (onset of the endotherm). The 33.1% of loss of weight corresponds to 1.96 molecules of DMSO for 1 molecule of sialic acid. It is thus very likely that Form 4 is a stoichiometric bis-solvate (2:1). The ^1H NMR spectrum is consistent with sialic acid. The only noticeable difference between the spectra of Form 1 and Form 4 is the relative size of the resonance at ca. 2.5 ppm. This is due to DMSO, which further supports that Form 4 is a DMSO solvate.
Referring to PLM images (FIG. 20), the habit of Form 5 is block-like with a length around 100 μm. Strong birefringence is observed. […] Further weight losses are present, which may be due to decomposition. The loss of weight of 10.5% correlates very well with the KF Titration (10.34%). It is very likely Form 5 is a dihydrate (expected loss of weight for a dihydrate is 10.44%). […] This possibly indicates the formation of a new anhydrous form by desolvation of Form 5 (onset seen for Form 1 is ca. 188.9° C.). The difference between the TG/DTA and the DSC traces is likely to be due to the difference in pan (open pan for TG/DTA and pierced closed pan for DSC). […]

The mark [11] stands for this setting: after 1 week under 40° C., 75% RH.
Where [12] appears, read: after 1 week under ambient conditions.
Where [13] appears, read: acetone, ethanol, ethyl acetate, ethynol, 20° C. or 60° C.

For the compound `CC(=O)N[C@H]1[C@H]([C@H](O)[C@H](O)CO)OC(O)(C(=O)O)C[C@@H]1O` (stereo partly drawn) [Form 1, N-acetylneuraminic acid], in series [1] (1 week stress test, conditions studied), the Chemical stability result is “stable”. In addition, in series [1] (setting [11]), the “N-acetyl-D-glucosamine Area % (HPLC)” value was 0.079% and 0.081%; the “Sialic acid Area % (HPLC)” value was 99.580% and 99.590%. In addition, the “N-acetyl-D-glucosamine Area % (HPLC)” value in series [1] (after 1 week under 80° C.) is 0.062%. Also, in series [1] (setting [12]), the N-acetyl-D-glucosamide known impurity is 0.076%; the “Sialic acid Area % (HPLC)” value is 99.705% and 99.711%. In series [1] (after 1 week, all three conditions (ambient; 40° C./75% RH; 80° C.)), the “HPLC purity of recovered samples” value is listed as “higher than 99.5%”. Besides, the solubility in [2] (deionized water, aqueous, read-out: Approximate solubility) is 98.5 g/L (≈ 318 mM). For the same compound, the solubility in series [2] (deionized water, deionized water, approximate, solvent addition, read-out: Aqueous Solubility, Solubility in g/L) worked out at 98.5 g/L (≈ 318 mM). Further, the “DSC (thermal events) Endotherm” value in [3] came out at 188.6° ° C. In [4], the “PLM (morphology), particle size” value is <10 μm and the “PLM (morphology)” value was “Small needles”. For the same compound, the “HPLC (purity)” value in “HPLC-UV chemical purity” worked out at 99.5%. For the same compound, the “Stability as a physical form (XRPD)” value in series [5] (1 week stress test, overall) is “stable”. The “Stability - XRPD post Stability” value in series [5] (no single condition stated) is listed as “no change”. Also, in [6] (acetic acid), the “Form recovered from competitive slurry between Forms 1 and 2” value is “mixture of Forms 1 and 3”; the “Form recovered from competitive slurry between Forms 1 and 3” value was “mixture of Form 1 and 3”. In series [6] (setting [13]), the “Form recovered from competitive slurry between Forms 1 and 2” value was “Form 1 is recovered”; the “Form recovered from competitive slurry between Forms 1 and 3” value is “Form 1 is recovered”. Moreover, the “Relative stability, competitive slurries between Forms 1 and 2” value in series [6] (all studied conditions) is recorded as “more stable than Form 2”. In addition, the “Relative stability, competitive slurries between Forms 1 and 3” value in series [6] (all studied conditions except in acetic acid) is “more stable than Form 3”. Moreover, the “Overall relative stability of the form” value in series [6] (competitive slurries, most of the studied conditions) is given as “thermodynamically most stable form”. Besides, the “Form obtained from slurry (XRPD)” value in series [7] (acetic acid, all time points) is “Form 1”. In series [7] (ethyl acetate, all time points), the “Form obtained from slurry (XRPD)” value was “Form 1”. Besides, the “Time to full conversion to Form 5 in slurry” value in series [7] (water and water/acetic acid (80:20 v/v)) is ≤ 10 min. Also, the “Form obtained from slurry (XRPD)” value in series [7] (water, all time points (10 minutes to 28 hours)) is on record as “Form 5”. In series [7] (water/acetic acid (80/20 v/v), all time points), the “Form obtained from slurry (XRPD)” value was “Form 5”. In series [8], the “TGA Decomposition temperature” value was “at 190.2 °C”. Moreover, in [9], the “Hygroscopicity (GVS)” value was “very slightly hygroscopic”, the “Stability when exposed to different humidity levels” value is on record as “stable”, the “XRPD post DVS” value is on record as “no change” and the GVS mass difference came out at 1.4%. For the same compound, the “Polymorphic form after GVS (XRPD)” value in [9] is given as “same polymorphic form (Form 1)”.

As to `CC(=O)N[C@H]1[C@H]([C@H](O)[C@H](O)CO)OC(O)(C(=O)O)C[C@@H]1O` (stereo partly drawn) [Form 4, N-acetylneuraminic acid], in series [10] (15 min at 100° C. under vacuum), the “Form after desolvation (XRPD)” value is on record as “converted to Form 1”.

Consider `CC(=O)N[C@H]1[C@H]([C@H](O)[C@H](O)CO)OC(O)(C(=O)O)C[C@@H]1O` (stereo partly drawn) [Form 5, N-acetylneuraminic acid], for which the HPLC (purity) in series [1] (after 1 week at 80° C.) was determined as 96.8%. In addition, the “Sialic acid Area % (HPLC)” value in series [1] (setting [11]) is 99.899% and 99.919%. The “Sodium Pyruvate Area % (HPLC)” value in series [1] (after 1 week under 80° C.) is listed as 0.559%. Moreover, in series [1] (after 1 week, both ambient and 40° C./75% RH samples), the HPLC (purity) result is reported as “higher than 99.9%”. In [1] (stability under 80° C.), the “Area % Acetic acid (HPLC)” value was determined as 0.000%, the “Area % N-acetyl-D-glucosamine (HPLC)” value came to 0.000% and the “Area % N-acetyl-D-mannosamine (HPLC)” value was 0.000%. This compound also showed an Approximate solubility in [2] (aqueous) of 96.6 mg/mL. Moreover, the “Aqueous Solubility, Solubility in g/L” value in series [2] (deionized water, approximate, solvent addition) came out at 96.6 g/L. In addition, in series [4], the “PLM (morphology), particle size” value is listed as < 100 μm and the “PLM (morphology)” value is on record as “Blocks”. Moreover, the “Area % Sodium Pyruvate (HPLC)” value in “HPLC-UV chemical purity” (no stress condition stated) is recorded as 0.000%. In addition, the “HPLC (purity)” value in the series “HPLC-UV chemical purity” is 99.80% and 99.90%. Also, in [5] (1 week at 40° C./75% RH), the “Physical form (XRPD) after stress” value was “stable”. For the same compound, the “Physical form (XRPD) after stress” value in [5] (1 week at 80° C.) is “converts to an unknown form”. In addition, the “Physical form (XRPD) after stress” value in [5] (1 week under ambient conditions) was “stable”. Also, the “Stability - XRPD post Stability” value in [5] (at 80° C.) was “New form 80 °C”. In addition, in series [5] (at RT), the “Stability - XRPD post Stability” value is reported as “Form 5 at RT”. Moreover, the “Form after dehydration (XRPD)” value in series [10] (held at 90° C. for 35 min in TG/DTA apparatus) is given as “unknown form”. Moreover, in [8], the “TGA (weight loss)” value turned out to be 10.5% and the “TGA temperature of the weight loss” value is recorded as “(88.4° C.)”. In [9], the “Hygroscopicity (GVS)” value is “very slightly hygroscopic”, the “Stability when exposed to different humidity levels” value is listed as “stable”, the “XRPD post DVS” value is “no change” and the GVS mass difference amounted to 1.45%. Moreover, the “Polymorphic form after GVS (XRPD)” value in series [9] is given as “same polymorphic form (Form 5)”.
